# Measured values reported in patent publication US20080234241A1, “MELANOGENESIS INHIBITORS AND WHITENING AGENTS COMPRISING ERGOSTEROL DERIVATIVE AND COMPOSITIONS CONTAINING ERGOSTEROL DERIVATIVE” (Sakamoto Bio Co., Ltd., priority 2000, published 2008).
# How the values were obtained:
# B 16 IOF7 melanoma cells = test: Melanogenesis inhibitory effect in B16 melanoma cells; format: cell-based, mouse; settings: for Minimum concentration for inhibition of melanogenesis: B16 cells cultivated 72 hours at 37° C., melanin from absorbance at 470 nm against methanol-treated control as 100%
# Description: Melanogenesis inhibitory activity was evaluated using B 16 IOF7 melanoma cells (obtained from the Akita Research Institute of Food and Brewing, Japan), which are melanogenic cells of mouse cells, by application to the cells of an isolated form of Formula (1) described above in a solution diluted with the couture medium, thereby observing the production of melanin. The B16 cells, cultivated to a 70% confluent level in a flask, were washed with PBS and then were treated with a trypsin solution to isolate the cells. The same volume of a serum-containing culture medium (E-MEM, 10% FBS) as that of the trypsin was added to the flask, followed by collecting the cells and centrifuging (800 rpm, 5 min.). After this phase of the process, the number of cells was counted and adjusted to approximately 10^4 cells/ml in the culture medium (E-MEM, 10% FBS). A diluted solution of Formula (1) was prepared by placing 20 μL of sterile PBS on a cell culturing plate (a type for adherent cells) along with 20 μL of a Formula (1) solution, thereby doubling dilution (a final concentration in the culture medium from 100 μg/mL to […]). The control arbutin (a final concentration in the culture medium from 140 μg/mL to 0.22 μg/mL) in methanol was similarly diluted.
# Then 80 μL of the cell suspension was added to the diluted sample solution (20 μL) on the plate, and the mixture was cultivated in a CO2 incubator at 37° C. for 72 hours. Melanogenesis in the cells was observed under a microscope. In cases where melanogenesis was confirmed microscopically, the culture medium was removed, and the cell layer was treated with 300 μL of 1N NaOH to dissolve the melanin, where the concentration of the melanin formed was determined from measurement of absorbance at 470 nm. The levels of Formula (1) and arbutin used were varied to determine their minimum concentrations needed for inhibiting melanogenesis, against the value of the methanol-treated control as 100%.
# [1] = system: pigment deposition on brachial skin; test: Measurement of whitening effect: lotion applied to brachial skin after exposure to sun light; format: in vivo, men; settings: for Decision (whitening effect): lotion, group of 20 men, applied twice everyday for 5 weeks starting five days after sun exposure; for Whitening effect of lotions, result in words: lotions of Table 2, 20 men, 5 weeks
# Description: Preparation the Alcohol and Water Phases are Prepared, Mixed, and Dissolved
# A test group made up of 20 men was exposed to sun light in summer for four hours per day from […]. for 2 days. Five days after the exposure to the sun light, the lotion described above was applied to the group on the brachial skin twice everyday, once each in the morning and in the evening for 5 weeks.
SMILES,Minimum concentration for inhibition of melanogenesis (B 16 IOF7 melanoma cells) [µg/mL],Decision (whitening effect) ([1]; content 0.2 % w/w),Decision (whitening effect) ([1]; content 1.0 % w/w),"Whitening effect of lotions, result in words [1]","Microscopic observation of melanogenesis in B16 cells (B 16 IOF7 melanoma cells; 72 hours culture, compared with arbutin)"
"OC[C@H]1O[C@@H](Oc2ccc(O)cc2)[C@H](O)[C@@H](O)[C@@H]1O [Arbutin, arbutin, reference compound]",0.88,,,,
"CC(C)[C@@H](C)/C=C/[C@@H](C)[C@H]1CC[C@@H]2[C@]1(C)CCC1[C@]23C=C[C@]2(C[C@@H](O)CC[C@]12C)OO3 (stereo partly drawn) [Formula (1), 5α,8α-epidioxy-(22E,24R)-orgosta-6,22-dien-3β-ol]",0.045,B (11 to 15 out of the group rated “Effective” or “More effective”),A (16 or more out of the group rated “Effective” or “More effective”),prevented pigment deposition and gave a whitening effect,inhibited more extensively by Formula (1) than by arbutin
"Oc1ccc(O)cc1 [hydroquinone, reference compound]",,,C (6 to 10 out of the group rated “Effective” or “More effective”),nor Comparative example 2 (hydroquinone) was effective,
